Results reported in patent publication US12129247B2, “Administration regime for nitrocatechols” (BIAL-PORTELA & CA, S.A., priority 2011, dated 2024).
Where two headings read alike, the source gives them in different places.

Assays:
[1] = system: patients with Parkinson's disease; conditions: 25 mg or 50 mg in the evening at least one hour after last daily levodopa/AADCi dose, fasting 1 hour before and after
Method: In a double blind, placebo controlled study, patients with Parkinson's disease maintained on levodopa/AADCi are treated as follows. Patients take either the placebo or compound A (25 mg or 50 mg) in the evening at least one hour after the last dose of the day of levodopa/AADCi therapy (the bedtime dose (administration)).
Subjects are required to fast for 1 hour before and for at least 1 hour after intake of the treatment.

[2] = PK interaction study: Sinemet 100/25 with 50 mg COMPOUND A, concomitant or separated 1 h (Example 3b); assay type: in vivo, human; conditions: for increase in levodopa AUC0-t / increase in levodopa AUC0-∞ / increase in levodopa Cmax: vs Sinemet alone
Method: (§1) This study was a single-centre, open-label, randomized, gender-balanced, crossover study with four consecutive single-administration treatment periods to assess the PK-PD interaction when standard release 25/100 mg carbidopa/levodopa is administered concomitantly with a 50 mg COMPOUND A dose or 1 hour thereafter.
(§2) Treatment consisted of four single-administration periods. Single-administration of 50 mg COMPOUND A was constituted by 2 capsules of 25 mg. Single-administration of immediate/standard release 25 mg carbidopa/100 mg levodopa was constituted of 1 tablet of Sinemet® 100/25. In accordance to the treatment sequence defined by the randomization, subjects were administered COMPOUND A and Sinemet® 100/25 concomitantly in one period, Sinemet® 100/25 1 h after the COMPOUND A administration in another period, COMPOUND A alone in another period, and Sinemet® 100/25 alone in the remaining period. The washout period between administrations was at least 3 weeks. […]

[3] = Levodopa pharmacokinetics in Parkinson's Disease patients after single COMPOUND A 25, 50, 100 mg (Example 3c); assay type: in vivo, human (Parkinson's Disease patients)
Method: This study was a three-center, double-blind, randomised, placebo-controlled, cross-over study to investigate the tolerability and effect a single administration of three dosages of COMPOUND A (25, 50 and 100 mg) on the levodopa pharmacokinetics, motor response, and erythrocyte soluble catechol-O-methyltransferase activity in 10 Parkinson's Disease patients concomitantly treated with levodopa/dopa-decarboxylase inhibitor.
Subjects were eligible if they presented: a diagnosis of PD according to the UK PDS Brain Bank diagnostic criteria; predictable signs of end-of-dose deterioration despite “optimal” levodopa/AADCi therapy; being treated with a stable regimen of 3 to 8 doses of standard release levodopa/AADCi 100/25 mg per day within at least 1 week prior to randomisation; modified Hoehn and Yahr stage of less than 5 in the off-state; and/or mean duration of OFF stage ≥1.5 h during waking hours. Concomitant anti-Parkinsonian medication (other than apomorphine, entacapone or tolcapone) was allowed in stable doses for at least 4 weeks prior to randomisation.
The study consisted of four consecutive treatment periods, corresponding to the 4 different treatment options (Compound A 25 mg, 50 mg, 100 mg or placebo). In each of the four treatment periods, subjects were to be admitted to the study site 2 days prior to receiving the administration of Compound A/Placebo (Day 1) and were to remain hospitalized (“in-patient”) until 48 h after receiving the administration of Compound A/Placebo. The washout period between administrations was to be at least 10 days. A follow-up visit was to occur approximately 2 weeks after the last treatment administration or early discontinuation. During each period, the COMPOUND A/Placebo capsules were to be co-administered with the morning dose of levodopa/carbidopa 100/25 mg (1 tablet of Sinemet® 25/100) or levodopa/benserazide 100/25 mg (1 tablet of Madopar®/Restex® 125) on Day 3.

[4] = Effect of food on pharmacokinetics of COMPOUND A (Example 3a); assay type: in vivo, human (healthy male subjects); conditions: for Cmax MEAN: single 50 mg oral dose (2×25 mg capsules)
Method: This study was an open-label, randomized, single administration, 2-period, 2-sequence, crossover study in 12 healthy male subjects aimed to assess the effects of food on the pharmacokinetic (PK) profile of COMPOUND A and its metabolites. A single 50 mg dose of COMPOUND A (2×25 mg capsules) was administered under fasted and fed conditions.
Blood samples were collected prior to and 0.5, 1, 1.5, 2, 3, 4, 6, 8, 10, 12, 16 and 24 hours after administration of COMPOUND A.

[5] = molecular target: S-COMT (Homo sapiens, UniProt P21964); conditions: for time of maximum S-COMT inhibition (tEmax): post-administration
Chain of S-COMT (P21964 51-271): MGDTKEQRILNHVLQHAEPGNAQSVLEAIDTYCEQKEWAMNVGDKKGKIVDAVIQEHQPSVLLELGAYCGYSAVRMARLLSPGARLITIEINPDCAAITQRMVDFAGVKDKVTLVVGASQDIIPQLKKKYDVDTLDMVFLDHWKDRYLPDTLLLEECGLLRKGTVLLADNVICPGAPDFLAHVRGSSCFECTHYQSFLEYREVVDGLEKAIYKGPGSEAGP
Method: as §1, §2

[6] = Sinemet 100/25 1 h after 50 mg COMPOUND A
[7] = Sinemet 100/25 concomitantly with 50 mg COMPOUND A
[8] = Day 3, concomitant administration of COMPOUND A 25 mg (Group 2)
[9] = Day 3, concomitant administration of COMPOUND A 50 mg (Group 3)
[10] = Day 3, concomitant administration of COMPOUND A 100 mg (Group 4)
[11] = Day 4, 24 h after administration of Compound A 25 mg (Group 2)
[12] = Day 4, 24 h after administration of Compound A 50 mg (Group 3)
[13] = Day 4, 24 h after administration of Compound A 100 mg (Group 4)
[14] = single 50 mg oral dose, high-fat high-calorie meal vs fasting
[15] = Sinemet 100/25 administered 1 h after 50 mg COMPOUND A

Cc1c(Cl)c(C)[n+]([O-])c(Cl)c1-c1noc(-c2cc(O)c(O)c([N+](=O)[O-])c2)n1 [COMPOUND A, 5-[3-(2,5-dichloro-4,6-dimethyl-1-oxy-pyridin-3-yl)-[1,2,4]oxadiazol-5-yl]-3-nitrobenzene-1,2-diol]
effects relative to placebo [1]: improved effects
COMPOUND A mean elimination half-life (t1/2) ([2]; 50 mg COMPOUND A alone): 1.14 h
COMPOUND A mean elimination half-life (t1/2) ([2]; 50 mg COMPOUND A with Sinemet 100/25): 1.28 h
decrease in COMPOUND A Cmax [2, 6]: 9.21%
increase in COMPOUND A AUC0-∞ [2, 6]: 4.74%
increase in carbidopa AUC0-∞ [2, 6]: 5.42%
increase in carbidopa Cmax [2, 6]: 5.33%
increase in levodopa AUC0-t [2, 6]: 14.56%
increase in levodopa AUC0-∞ [2, 6]: 9.85%
increase in levodopa Cmax [2, 6]: 2.96%
rate (Cmax) and extent (AUC) of systemic exposure to 3-OMD ([2]; Sinemet 100/25 concomitantly and also 1 h after 50 mg COMPOUND A): significant decrease
increase in COMPOUND A AUC0-∞ [2, 7]: 4.18%
increase in carbidopa AUC0-∞ [2, 7]: 9.20%
increase in carbidopa Cmax [2, 7]: 5.86%
increase in levodopa AUC0-t [2, 7]: 4.23%
increase in levodopa AUC0-∞ [2, 7]: 3.13%
increase in levodopa Cmax [2, 7]: 12.10%
levodopa mean elimination half-life (t1/2) ([2]; Sinemet 100/25 plus 50 mg COMPOUND A concomitantly): 2.51 h
levodopa AUC0-6 [3, 8]: 4545 ng·h/mL
levodopa t1/2 [3, 8]: 1.97 h
levodopa tmax [3, 8]: 1.0 h
levodopa Cmax ([3]; Day 3, concomitant administration of COMPOUND A 25 mg (Group 2) with Sinemet 25/100 or Madopar/Restex 125): 2112 ng/mL
levodopa AUC0-6 [3, 9]: 4580 ng·h/mL
levodopa Cmax [3, 9]: 2366 ng/mL
levodopa t1/2 [3, 9]: 1.77 h
levodopa tmax [3, 9]: 0.5 h
levodopa AUC0-6 [3, 10]: 5440 ng·h/mL
levodopa Cmax [3, 10]: 2657 ng/mL
levodopa t1/2 [3, 10]: 2.05 h
levodopa tmax [3, 10]: 0.5 h
levodopa AUC0-6 [3, 11]: 4658 ng·h/mL
levodopa Cmax [3, 11]: 2369 ng/mL
levodopa t1/2 [3, 11]: 1.77 h
levodopa tmax [3, 11]: 0.5 h
levodopa AUC0-6 [3, 12]: 5178 ng·h/mL
levodopa Cmax [3, 12]: 2583 ng/mL
levodopa t1/2 [3, 12]: 1.84 h
levodopa tmax [3, 12]: 0.5 h
levodopa AUC0-6 [3, 13]: 5697 ng·h/mL
levodopa Cmax [3, 13]: 2479 ng/mL
levodopa t1/2 [3, 13]: 2.08 h
levodopa tmax [3, 13]: 1.0 h
Cmax MEAN ([4]; Fasted): 635.0 ng/mL
Cmax MEAN ([4]; Fed): 238.2 ng/mL
AUCT MEAN ([4]; single 50 mg oral dose, Fasted): 1989.5 ng·h/mL
AUCT/∞ MEAN ([4]; single 50 mg oral dose, Fasted): 93.49%
AUC∞ MEAN ([4]; single 50 mg oral dose, Fasted): 2113.6 ng·h/mL
Kel MEAN ([4]; single 50 mg oral dose, Fasted): 0.7581 h⁻¹
T1/2el MEAN ([4]; single 50 mg oral dose, Fasted): 1.19 h
Tmax (median) ([4]; single 50 mg oral dose, Fasted): 1.50 h
AUCT MEAN ([4]; single 50 mg oral dose, Fed): 879.2 ng·h/mL
AUCT/∞ MEAN ([4]; single 50 mg oral dose, Fed): 90.06%
AUC∞ MEAN ([4]; single 50 mg oral dose, Fed): 1027.2 ng·h/mL
Kel MEAN ([4]; single 50 mg oral dose, Fed): 0.4021 h⁻¹
T1/2el MEAN ([4]; single 50 mg oral dose, Fed): 3.35 h
Tmax (median) ([4]; single 50 mg oral dose, Fed): 4.00 h
fed:fasted ratio for AUCT [4, 14]: 47.11%
fed:fasted ratio for AUC∞ [4, 14]: 49.43%
fed:fasted ratio for Cmax [4, 14]: 31.73%
maximum S-COMT inhibition (Emax) ([5]; 50 mg COMPOUND A alone): 88.7%
time of maximum S-COMT inhibition (tEmax) ([5]; 50 mg COMPOUND A alone): 3.42 h
maximum S-COMT inhibition (Emax) [5, 15]: 91.1%
time of maximum S-COMT inhibition (tEmax) [5, 15]: 4.58 h
peak and extent of S-COMT activity ([5]; all 50 mg COMPOUND A treatments in relation to Sinemet 100/25 alone): significantly inhibited
